Test results as given in ChEMBL document CHEMBL3112400, “Cannabinoid agonists showing BuChE inhibition as potential therapeutic agents for Alzheimer's disease” (Eur J Med Chem, 2014).
The source made the active and inactive calls. The calls are words filed in the database; no cut-off is given here.

Assays:
[1] = target: T1, Cholinesterase (Homo sapiens, UniProt P06276); test: Inhibition of human BuChE using butyrylthiocholine as substrate by Ellman's method
[2] = target: Cholinesterase (Equus caballus, UniProt P81908); test: Inhibition of horse serum BuChE using butyrylthiocholine as substrate by Ellman's method
Cholinesterase (Equus caballus, UniProt P81908), sequence (P81908 whole entry): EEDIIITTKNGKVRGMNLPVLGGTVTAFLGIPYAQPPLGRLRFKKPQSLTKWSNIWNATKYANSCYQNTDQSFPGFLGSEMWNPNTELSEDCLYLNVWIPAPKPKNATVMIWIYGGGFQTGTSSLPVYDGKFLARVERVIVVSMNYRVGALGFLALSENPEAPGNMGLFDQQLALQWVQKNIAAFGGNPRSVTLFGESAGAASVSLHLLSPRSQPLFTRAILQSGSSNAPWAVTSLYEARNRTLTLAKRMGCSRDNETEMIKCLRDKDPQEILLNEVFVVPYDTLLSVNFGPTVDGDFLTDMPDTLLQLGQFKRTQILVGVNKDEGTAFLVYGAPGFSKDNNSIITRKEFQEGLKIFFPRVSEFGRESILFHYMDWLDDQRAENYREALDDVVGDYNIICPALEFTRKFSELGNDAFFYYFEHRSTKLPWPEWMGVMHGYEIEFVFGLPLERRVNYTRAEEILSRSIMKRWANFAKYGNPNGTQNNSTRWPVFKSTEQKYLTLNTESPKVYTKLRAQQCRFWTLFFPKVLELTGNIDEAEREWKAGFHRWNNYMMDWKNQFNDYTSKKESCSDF

[3] = target: Cannabinoid receptor 2 (Homo sapiens, UniProt P34972); test: Displacement of [3H]-CP55940 from human CB2 receptor transfected in HEK-293EBNA cells after 90 mins by luminescence counting analysis; type: cell-based
Cannabinoid receptor 2, sequence (P34972 whole entry): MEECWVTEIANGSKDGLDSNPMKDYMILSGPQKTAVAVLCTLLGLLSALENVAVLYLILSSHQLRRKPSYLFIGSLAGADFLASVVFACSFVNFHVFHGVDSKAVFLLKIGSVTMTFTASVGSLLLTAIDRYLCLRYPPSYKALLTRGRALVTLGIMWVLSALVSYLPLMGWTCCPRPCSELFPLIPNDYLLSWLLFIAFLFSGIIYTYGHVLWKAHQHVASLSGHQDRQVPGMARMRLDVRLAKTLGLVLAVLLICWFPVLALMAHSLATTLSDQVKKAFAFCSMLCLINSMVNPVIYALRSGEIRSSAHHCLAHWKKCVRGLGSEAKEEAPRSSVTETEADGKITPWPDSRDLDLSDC

[4] = target: T2, Acetylcholinesterase (Homo sapiens, UniProt P22303); test: Inhibition of human AChE using acetylthiocholine as substrate by Ellman's method
T2 sequence (P22303 whole entry): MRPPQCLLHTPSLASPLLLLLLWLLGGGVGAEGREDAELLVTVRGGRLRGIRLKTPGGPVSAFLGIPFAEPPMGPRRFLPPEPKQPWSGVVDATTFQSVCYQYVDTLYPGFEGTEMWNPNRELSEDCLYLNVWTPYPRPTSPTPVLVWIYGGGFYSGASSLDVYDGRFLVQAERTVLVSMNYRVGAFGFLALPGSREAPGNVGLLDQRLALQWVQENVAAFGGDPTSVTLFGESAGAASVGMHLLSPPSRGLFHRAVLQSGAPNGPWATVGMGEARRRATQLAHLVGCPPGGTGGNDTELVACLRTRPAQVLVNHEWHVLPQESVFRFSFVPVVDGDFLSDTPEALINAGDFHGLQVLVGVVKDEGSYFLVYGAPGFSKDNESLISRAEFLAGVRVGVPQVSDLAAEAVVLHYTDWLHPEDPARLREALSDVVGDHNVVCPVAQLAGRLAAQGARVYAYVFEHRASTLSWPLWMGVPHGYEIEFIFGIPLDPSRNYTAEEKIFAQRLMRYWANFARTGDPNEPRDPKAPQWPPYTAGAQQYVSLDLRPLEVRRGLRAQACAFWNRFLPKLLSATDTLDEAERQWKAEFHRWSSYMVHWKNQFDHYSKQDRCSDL

[5] = target: Cannabinoid receptor 1 (Homo sapiens, UniProt P21554); test: Displacement of [3H]-CP55940 from human CB1 receptor transfected in HEK-293EBNA cells after 90 mins by luminescence counting analysis; type: cell-based
Cannabinoid receptor 1, sequence (P21554 whole entry): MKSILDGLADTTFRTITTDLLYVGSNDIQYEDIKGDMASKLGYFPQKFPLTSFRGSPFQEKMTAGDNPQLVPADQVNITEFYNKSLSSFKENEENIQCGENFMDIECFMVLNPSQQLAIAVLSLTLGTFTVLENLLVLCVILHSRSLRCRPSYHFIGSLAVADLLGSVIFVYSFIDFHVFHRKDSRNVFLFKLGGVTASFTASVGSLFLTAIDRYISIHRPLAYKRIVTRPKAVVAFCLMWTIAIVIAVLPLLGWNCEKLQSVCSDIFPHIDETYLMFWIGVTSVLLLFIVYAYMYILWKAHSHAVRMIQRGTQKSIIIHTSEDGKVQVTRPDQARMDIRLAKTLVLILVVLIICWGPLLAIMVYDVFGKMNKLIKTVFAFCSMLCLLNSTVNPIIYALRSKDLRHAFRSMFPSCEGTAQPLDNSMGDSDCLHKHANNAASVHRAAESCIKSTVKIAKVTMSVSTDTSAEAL

[6] = target: T2, Acetylcholinesterase; test: Competitive inhibition of AChE (unknown origin) by Lineweaver-Burk double reciprocal plot analysis
[7] = target: T1, Cholinesterase; test: Competitive inhibition of BuChE (unknown origin) using butyrylthiocholine as substrate by Lineweaver-Burk double reciprocal plot analysis
[8] = target: T3, Cannabinoid receptor (Mus musculus) (UniProt P47746+P47936); test: Agonist activity at CB1/CB2 receptor in ICR mouse vas deferens assessed as inhibition of electrically induced contractile response at 2.7 X 10^-6 M after 10 mins in presence of AM251 and AM630
T3 sequence (P47746 whole entry, looked up): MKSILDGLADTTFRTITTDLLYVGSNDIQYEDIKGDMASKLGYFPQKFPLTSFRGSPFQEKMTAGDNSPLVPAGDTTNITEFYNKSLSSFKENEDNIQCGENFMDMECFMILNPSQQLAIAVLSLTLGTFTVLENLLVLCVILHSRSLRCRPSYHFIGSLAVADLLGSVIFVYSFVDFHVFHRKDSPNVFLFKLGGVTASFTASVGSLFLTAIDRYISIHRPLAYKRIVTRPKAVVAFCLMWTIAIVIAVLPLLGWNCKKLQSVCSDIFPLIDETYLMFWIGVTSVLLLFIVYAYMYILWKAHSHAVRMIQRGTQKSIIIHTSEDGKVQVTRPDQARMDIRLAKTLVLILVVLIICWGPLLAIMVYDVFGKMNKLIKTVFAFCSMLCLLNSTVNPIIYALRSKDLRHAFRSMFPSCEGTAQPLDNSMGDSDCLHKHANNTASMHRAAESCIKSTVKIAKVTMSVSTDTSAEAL
T3 sequence (P47936 whole entry, looked up): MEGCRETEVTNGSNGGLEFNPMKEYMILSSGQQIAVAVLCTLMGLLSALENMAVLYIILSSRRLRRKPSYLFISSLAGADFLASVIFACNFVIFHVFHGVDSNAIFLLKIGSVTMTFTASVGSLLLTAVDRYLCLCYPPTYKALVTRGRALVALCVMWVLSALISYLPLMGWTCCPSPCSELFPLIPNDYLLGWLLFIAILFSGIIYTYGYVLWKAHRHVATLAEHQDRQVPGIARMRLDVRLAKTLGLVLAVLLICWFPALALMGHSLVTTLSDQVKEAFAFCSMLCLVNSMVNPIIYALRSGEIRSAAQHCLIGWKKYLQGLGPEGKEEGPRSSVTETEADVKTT

[9] = target: T3, Cannabinoid receptor (Mus musculus); test: Agonist activity at CB1/CB2 receptor in ICR mouse vas deferens assessed as inhibition of electrically induced contractile response at 2.7 X 10^-6 M after 10 mins in presence of AM251
[10] = target: Cannabinoid receptor 1 (Mus musculus) (UniProt P47746); test: Agonist activity at CB1 receptor in ICR mouse vas deferens assessed as inhibition of electrically induced contractile response at 10^-7 to 2 X 10^-5 M after 10 mins
Cannabinoid receptor 1 (Mus musculus), sequence (P47746 whole entry): as the sequence (P47746 whole entry, looked up) above

[11] = target: Cannabinoid receptor 1 (Mus musculus) (UniProt P47746); test: Agonist activity at CB1 receptor in ICR mouse vas deferens assessed as inhibition of electrically induced contractile response after 10 mins
[12] = Antioxidant activity in phosphate buffer after 15 mins by ORAC-FL method relative to trolox; type: functional
[13] = target: T1, Cholinesterase; test: Noncompetitive inhibition of BuChE (unknown origin) using butyrylthiocholine as substrate by Lineweaver-Burk double reciprocal plot analysis
[14] = target: T1, Cholinesterase; test: Mixed-type inhibition of BuChE (unknown origin) using butyrylthiocholine as substrate by Lineweaver-Burk double reciprocal plot analysis

T1 sequence (P06276 whole entry): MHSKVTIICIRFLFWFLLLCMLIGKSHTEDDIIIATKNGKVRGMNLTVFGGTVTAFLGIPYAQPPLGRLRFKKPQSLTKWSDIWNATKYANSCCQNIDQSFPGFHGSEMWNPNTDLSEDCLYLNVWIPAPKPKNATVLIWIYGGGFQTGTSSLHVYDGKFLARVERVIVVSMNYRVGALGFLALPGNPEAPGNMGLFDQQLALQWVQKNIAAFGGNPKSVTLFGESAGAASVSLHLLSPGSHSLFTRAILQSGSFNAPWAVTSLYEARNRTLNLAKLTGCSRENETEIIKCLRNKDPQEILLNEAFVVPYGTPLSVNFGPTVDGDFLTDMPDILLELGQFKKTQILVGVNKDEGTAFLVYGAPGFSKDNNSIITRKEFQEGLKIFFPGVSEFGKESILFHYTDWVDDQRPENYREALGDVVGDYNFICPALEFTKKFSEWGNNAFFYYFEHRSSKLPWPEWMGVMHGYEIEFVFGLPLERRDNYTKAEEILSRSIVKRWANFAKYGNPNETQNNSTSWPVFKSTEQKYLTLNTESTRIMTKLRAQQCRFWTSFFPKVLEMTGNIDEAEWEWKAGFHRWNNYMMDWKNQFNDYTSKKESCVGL

CCCCCn1nc(OCc2ccc3ccccc3c2)c2cc([N+](=O)[O-])ccc21
IC50 [1]: > 10000 nM
IC50 [2]: > 10000 nM
Ki [3]: 1370 nM
IC50 [4]: 8200 nM
Ki [5]: 1600 nM

CC(C)N(CCn1nc(OCc2cccc3ccccc23)c2ccccc21)C(C)C
inhibition [6]: Active
Ki [7]: 28 nM
IC50 [1]: 100 nM
Ki [3]: 5400 nM
IC50 [4]: > 10000 nM
Ki [5]: > 40000 nM

O=[N+]([O-])c1ccc2c(c1)c(OCc1ccc3ccccc3c1)nn2Cc1ccccc1
IC50 [1]: > 10000 nM
IC50 [2]: > 10000 nM
Ki [3]: 400 nM
IC50 [4]: 6300 nM
Ki [5]: > 10000 nM

O=[N+]([O-])c1ccc2c(c1)c(OCc1ccc3ccccc3c1)nn2CCN1CCOCC1
IC50 [1]: > 10000 nM
IC50 [2]: > 10000 nM
Ki [3]: 500 nM
IC50 [4]: > 10000 nM
Ki [5]: 1380 nM

Nc1ccc2c(c1)c(OCc1cccc3ccccc13)nn2CCN1CCCC1
inhibition [8]: Active
inhibition [9]: Active
inhibition [10]: Active
inhibition [11]: Dose-dependent effect
Ratio [12]: 1.3
Ki [7]: 1000 nM
IC50 [1]: 3000 nM
Ki [3]: 5000 nM
IC50 [4]: > 25000 nM
Ki [5]: 11000 nM

c1ccc2c(c1)c(OCC1CCCCC1)nn2CC1CCCCC1
IC50 [1]: > 10000 nM
IC50 [2]: > 10000 nM
Ki [3]: 1300 nM
IC50 [4]: 7100 nM
Ki [5]: 200 nM

CCCCCOc1nn(CCCCC)c2ccc([N+](=O)[O-])cc12
IC50 [1]: > 10000 nM
IC50 [2]: > 10000 nM
Ki [3]: 680 nM
IC50 [4]: 4200 nM
Ki [5]: 1300 nM

Brc1ccc2c(c1)c(OCc1ccc3ccccc3c1)nn2CCN1CCCCC1
Ki [7]: 79 nM
IC50 [1]: 190 nM
Ki [3]: 1800 nM
IC50 [4]: > 10000 nM
Ki [5]: 1700 nM

COc1ccc(COc2nn(CCN(C(C)C)C(C)C)c3ccccc23)cc1
inhibition [8]: inactive
inhibition [9]: inactive
inhibition [11]: Dose-dependent effect
Ratio [12]: 1
Ki [13]: 2600 nM
IC50 [1]: 4800 nM
IC50 [2]: 2280 nM
Ki [3]: 7700 nM
IC50 [4]: > 10000 nM
Ki [5]: > 40000 nM

c1ccc2c(COc3nn(Cc4cccc5ccccc45)c4ccccc34)cccc2c1
IC50 [1]: > 10000 nM
Ki [3]: > 10000 nM
IC50 [4]: > 10000 nM
Ki [5]: > 10000 nM

COc1ccc(COc2nn(Cc3ccc(OC)cc3)c3ccccc23)cc1
IC50 [1]: > 10000 nM
IC50 [2]: > 10000 nM
Ki [3]: 900 nM
IC50 [4]: > 10000 nM
Ki [5]: 2400 nM

O=[N+]([O-])c1ccc2c(c1)c(OCc1cccc3ccccc13)nn2CCN1CCCC1
inhibition [11]: Dose-dependent effect
Ki [7]: 2100 nM
IC50 [1]: 4500 nM
Ki [3]: 130 nM
IC50 [4]: > 25000 nM
Ki [5]: 600 nM

Nc1ccc2c(c1)c(OCc1ccccc1)nn2Cc1ccccc1
IC50 [1]: > 10000 nM
IC50 [2]: > 10000 nM
Ki [3]: 1600 nM
Ki [5]: 4000 nM

Nc1ccc2c(c1)c(OCc1ccc3ccccc3c1)nn2CCN1CCCCC1
inhibition [8]: inactive
inhibition [9]: inactive
inhibition [10]: Active
inhibition [11]: Dose-dependent effect
Ratio [12]: 0.8
Ki [14]: 380 nM
IC50 [2]: 1500 nM
Ki [3]: 2000 nM
IC50 [4]: > 10000 nM
Ki [5]: > 40000 nM

O=[N+]([O-])c1ccc2c(c1)c(OCc1ccc3ccccc3c1)nn2CCN1CCCCC1
Ki [14]: 2900 nM
IC50 [1]: 3600 nM
IC50 [2]: 2070 nM
Ki [3]: 500 nM
IC50 [4]: > 10000 nM
Ki [5]: 1300 nM

c1ccc2c(COc3nn(CCN4CCCCC4)c4ccccc34)cccc2c1
inhibition [8]: Active
inhibition [9]: Active
inhibition [10]: Active
inhibition [11]: Dose-dependent effect
Ratio [12]: 0.5
inhibition [6]: Active
Ki [7]: 220 nM
IC50 [1]: 810 nM
IC50 [2]: 910 nM
Ki [3]: 240 nM
IC50 [4]: > 10000 nM
Ki [5]: 3000 nM

O=[N+]([O-])c1ccc2c(c1)c(OCc1ccc3ccccc3c1)nn2Cc1ccc2ccccc2c1
IC50 [1]: > 10000 nM
IC50 [2]: > 10000 nM
Ki [3]: > 10000 nM
IC50 [4]: > 10000 nM
Ki [5]: > 10000 nM

O=[N+]([O-])c1ccc2c(c1)c(OCc1ccccc1)nn2Cc1ccccc1
IC50 [1]: > 10000 nM
IC50 [2]: > 10000 nM
Ki [3]: 400 nM
IC50 [4]: 7300 nM
Ki [5]: 1200 nM

c1ccc(COc2nn(Cc3ccccc3)c3ccccc23)cc1
IC50 [1]: > 25000 nM
Ki [3]: 3510 nM
IC50 [4]: 2900 nM
Ki [5]: 2600 nM

CCCCCn1nc(OCc2ccc(OC)cc2)c2cc([N+](=O)[O-])ccc21
IC50 [1]: > 10000 nM
IC50 [2]: > 10000 nM
Ki [3]: 490 nM
IC50 [4]: 9700 nM
Ki [5]: 800 nM

c1ccc2c(COc3nn(CCN4CCCC4)c4ccccc34)cccc2c1
inhibition [8]: Active
inhibition [9]: Active
inhibition [10]: Active
inhibition [11]: Dose-dependent effect
Ratio [12]: 0.7
Ki [7]: 1200 nM
IC50 [1]: 2830 nM
IC50 [2]: 6700 nM
Ki [3]: 400 nM
IC50 [4]: > 10000 nM
Ki [5]: 560 nM

Cc1c(C(=O)c2cccc3ccccc23)c2cccc3c2n1[C@H](CN1CCOCC1)CO3
inhibition [10]: Active

O=[N+]([O-])c1ccc2c(c1)c(OCc1cccc3ccccc13)nn2Cc1cccc2ccccc12
IC50 [1]: > 10000 nM
Ki [3]: 240 nM
IC50 [4]: 6700 nM
Ki [5]: 3800 nM

O=[N+]([O-])c1ccc2c(c1)c(OCC1CCCCC1)nn2Cc1ccccc1
IC50 [1]: > 10000 nM
IC50 [2]: > 10000 nM
Ki [3]: 90 nM
IC50 [4]: > 10000 nM
Ki [5]: > 40000 nM
inhibition [5]: 39%

c1ccc2cc(COc3nn(CCN4CCCCC4)c4ccccc34)ccc2c1
inhibition [8]: inactive
inhibition [9]: inactive
inhibition [10]: Active
inhibition [11]: Dose-dependent effect
Ratio [12]: 0.5
Ki [13]: 1190 nM
IC50 [1]: 970 nM
IC50 [2]: 1400 nM
Ki [3]: 2000 nM
IC50 [4]: > 10000 nM
Ki [5]: 1400 nM

COc1ccc(COc2nn(CCN(C(C)C)C(C)C)c3ccc([N+](=O)[O-])cc23)cc1
IC50 [1]: > 100000 nM
Ki [3]: 9000 nM
IC50 [4]: 91000 nM
Ki [5]: > 40000 nM
